Measured values as given in patent US20220089575A1, “FARNESOID X RECEPTOR AGONISTS AND USES THEREOF” (Metacrine, Inc., priority 2017, published 2022).
Counter-ions that a name gives are not always drawn.

The molecules below were run against T1, hFXR (Homo sapiens, UniProt Q96RI1) (assay: In Vitro FXR Assay (TK): TK-ECRE-luc reporter in transfected CV-1 cells). Settings: 18 hrs, luminescence, maximum efficacy of <25% of the Fexarmine control classified as '+'.
T1 construct: expressed in transfected cells; host or cells: CV-1 cells
T1 sequence (Q96RI1 1-486): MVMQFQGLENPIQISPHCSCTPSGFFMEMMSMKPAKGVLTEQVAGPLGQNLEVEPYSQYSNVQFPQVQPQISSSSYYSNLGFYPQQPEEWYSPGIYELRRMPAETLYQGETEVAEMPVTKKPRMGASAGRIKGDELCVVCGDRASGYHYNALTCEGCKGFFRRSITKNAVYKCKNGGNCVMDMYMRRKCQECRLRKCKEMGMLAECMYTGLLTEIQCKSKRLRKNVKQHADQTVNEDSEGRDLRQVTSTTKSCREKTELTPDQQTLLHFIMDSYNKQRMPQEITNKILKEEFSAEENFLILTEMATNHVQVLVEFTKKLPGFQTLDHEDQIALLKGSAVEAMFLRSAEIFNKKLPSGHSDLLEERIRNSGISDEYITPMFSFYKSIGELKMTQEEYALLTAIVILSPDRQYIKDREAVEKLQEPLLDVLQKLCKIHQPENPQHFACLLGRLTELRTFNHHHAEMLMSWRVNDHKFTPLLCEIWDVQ
T1 sequence (P19793 1-462 partner): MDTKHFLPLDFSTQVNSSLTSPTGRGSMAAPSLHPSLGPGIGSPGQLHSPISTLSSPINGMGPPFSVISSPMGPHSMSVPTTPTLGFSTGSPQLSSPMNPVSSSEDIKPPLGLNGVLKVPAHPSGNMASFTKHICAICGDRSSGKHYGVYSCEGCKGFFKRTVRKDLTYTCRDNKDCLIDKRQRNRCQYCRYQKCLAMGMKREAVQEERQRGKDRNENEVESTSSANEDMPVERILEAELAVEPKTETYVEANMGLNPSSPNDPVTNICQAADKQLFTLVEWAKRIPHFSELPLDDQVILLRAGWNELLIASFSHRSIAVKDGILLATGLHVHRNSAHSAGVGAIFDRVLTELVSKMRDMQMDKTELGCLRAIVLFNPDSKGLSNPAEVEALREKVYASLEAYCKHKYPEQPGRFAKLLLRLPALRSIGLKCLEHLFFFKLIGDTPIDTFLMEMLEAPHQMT
Format: cell-based
Summary of the method: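 Cells are seeded in charcoal double-stripped FBS medium, transfected overnight with FXR/RXR expression and ECRE-driven luciferase reporter plasmids, then treated with serially diluted compounds for 18 h. Lysates are measured for luciferase light output.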

`COc1ccc([C@H]2CC[C@H](CN(c3cccc(-c4cnn(C5CC5)c4)c3)C(=O)[C@H]3CC[C@H](OC(=O)N4CC([S+](C)[O-])C4)CC3)CC2)cc1C` (stereo partly drawn) [Compound 8.01, trans-4-((3-(1-Cyclopropyl-1H-pyrazol-4-yl)phenyl)((trans-4-(4-methoxy-3-methylphenyl)cyclohexyl)methyl)carbamoyl)cyclohexyl 3-(methylsulfinyl)azetidine-1-carboxylate] and `COc1ccc([C@H]2CC[C@H](CN(c3cccc(-c4cnn(C5CC5)c4)c3)C(=O)[C@H]3CC[C@H](OC(=O)N4CC(CS(C)(=O)=O)C4)CC3)CC2)cc1C` [Compound 9, trans-4-((3-(1-cyclopropyl-1H-pyrazol-4-yl)phenyl)((trans-4-(4-methoxy-3-methylphenyl)cyclohexyl)methyl)carbamoyl)cyclohexyl 3-((methylsulfonyl)methyl)azetidine-1-carboxylate] cannot be ordered by EC50: no more than 250 nM for the first, no more than 250 nM for the second.

`COc1ccc([C@H]2CC[C@H](CN(c3cccc(-c4cnn(C5CC5)c4)c3)C(=O)[C@H]3CC[C@H](OC(=O)[C@H]4CC[C@H](O)CC4)CC3)CC2)cc1C` [Compound 10, trans-4-((3-(1-Cyclopropyl-1H-pyrazol-4-yl)phenyl)((trans-4-(4-methoxy-3-methylphenyl)cyclohexyl)methyl)carbamoyl)cyclohexyl trans-4-hydroxycyclohexanecarboxylate] and `COc1ccc([C@H]2CC[C@H](CN(c3cccc(-c4cnn(C5CC5)c4)c3)C(=O)[C@H]3CC[C@H](CO)CC3)CC2)cc1C` [Compound 15, trans-N-(3-(1-Cyclopropyl-1H-pyrazol-4-yl)phenyl)-4-(hydroxymethyl)-N-((trans-4-(4-methoxy-3-methylphenyl)cyclohexyl)methyl) cyclohexanecarboxamide] cannot be ordered by EC50: no more than 250 nM for the first, no more than 250 nM for the second.

`CNCCO[C@H]1CC[C@H](C(=O)N(C[C@H]2CC[C@H](c3ccc(OC)c(C)c3)CC2)c2cccc(-c3cnc(C4CC4)s3)c2)CC1` [Compound 11, trans-N-(3-(2-Cyclopropylthiazol-5-yl)phenyl)-N-((trans-4-(4-methoxy-3-methylphenyl)cyclohexyl)methyl)-4-(2-(methylamino)ethoxy) cyclohexanecarboxamide hydrochloride] and `COc1ccc([C@H]2CC[C@H](CN(c3cccc(-c4cnc(C5CC5)s4)c3)C(=O)[C@H]3CC[C@H](OCCN(C)C)CC3)CC2)cc1C` [Compound 13.05, trans-N-(3-(2-Cyclopropylthiazol-5-yl)phenyl)-4-(2-(dimethylamino)ethoxy)-N-((trans-4-(4-methoxy-3-methylphenyl)cyclohexyl)methyl) cyclohexanecarboxamide] fall in the same range of EC50: 250 to 1000 nM for the first, 250 to 1000 nM for the second.

`COc1ccc([C@H]2CC[C@H](CN(c3cccc(-c4cnn(C(C)C)c4)c3)C(=O)[C@H]3CC[C@H](OCC(=O)O)CC3)CC2)cc1C` [Compound 12, 2-((trans-4-((3-(1-Isopropyl-1H-pyrazol-4-yl)phenyl)((trans-4-(4-methoxy-3-methylphenyl)cyclohexyl)methyl)carbamoyl)cyclohexyl)oxy)acetic acid] and `COc1ncc(-c2cccc(N(C[C@H]3CC[C@H](c4ccc(OC)c(C)c4)CC3)C(=O)[C@H]3CC[C@H](OCCO)CC3)c2)s1` [Compound 13.03, trans-4-(2-Hydroxyethoxy)-N-((trans-4-(4-methoxy-3-methylphenyl)cyclohexyl)methyl)-N-(3-(2-methoxythiazol-5-yl)phenyl)cyclohexanecarboxamide] cannot be ordered by EC50: no more than 250 nM for the first, no more than 250 nM for the second.

`COc1ncc(-c2cccc(N(C[C@H]3CC[C@H](c4ccc(OC)c(C)c4)CC3)C(=O)[C@H]3CC[C@H](OC(=O)N(C)C)CC3)c2)s1` [Compound 13, trans-4-(((trans-4-(4-Methoxy-3-methylphenyl)cyclohexyl)methyl)(3-(2-methoxythiazol-5-yl)phenyl)carbamoyl)cyclohexyl dimethylcarbamate] and `COc1ncc(-c2cccc(N(C[C@H]3CC[C@H](c4ccc(OC)c(C)c4)CC3)C(=O)[C@H]3CC[C@H](C(=O)O)CC3)c2)s1` [Compound 17.01, trans-4-(((trans-4-(4-Methoxy-3-methylphenyl)cyclohexyl)methyl)(3-(2-methoxythiazol-5-yl)phenyl)carbamoyl)cyclohexanecarboxylic acid] cannot be ordered by EC50: no more than 250 nM for the first, no more than 250 nM for the second.

`COCCO[C@H]1CC[C@H](C(=O)N(C[C@H]2CC[C@H](c3ccc(OC)c(C)c3)CC2)c2cccc(-c3cnc(OC)s3)c2)CC1` [Compound 13.01, trans-N-((trans-4-(4-Methoxy-3-methylphenyl)cyclohexyl)methyl)-4-(2-methoxyethoxy)-N-(3-(2-methoxythiazol-5-yl)phenyl) cyclohexanecarboxamide] and `COCCCO[C@H]1CC[C@H](C(=O)N(C[C@H]2CC[C@H](c3ccc(OC)c(C)c3)CC2)c2cccc(-c3cnc(OC)s3)c2)CC1` [Compound 13.02, trans-N-((trans-4-(4-Methoxy-3-methylphenyl)cyclohexyl)methyl)-4-(3-methoxypropoxy)-N-(3-(2-methoxythiazol-5-yl)phenyl) cyclohexanecarboxamide] cannot be ordered by EC50: no more than 250 nM for the first, no more than 250 nM for the second.

`COc1ncc(-c2cccc(N(C[C@H]3CC[C@H](c4ccc(OC)c(C)c4)CC3)C(=O)[C@H]3CC[C@H](OCCCO)CC3)c2)s1` [Compound 13.04, trans-4-(3-Hydroxypropoxy)-N-((trans-4-(4-methoxy-3-methylphenyl)cyclohexyl)methyl)-N-(3-(2-methoxythiazol-5-yl)phenyl) cyclohexanecarboxamide] and `COc1ncc(-c2cccc(N(C[C@H]3CC[C@H](c4ccc(OC)c(C)c4)CC3)C(=O)[C@H]3CC[C@H](CO)CC3)c2)s1` [Compound 15.01, trans-4-(Hydroxymethyl)-N-((trans-4-(4-methoxy-3-methylphenyl)cyclohexyl)methyl)-N-(3-(2-methoxythiazol-5-yl)phenyl)cyclohexanecarboxamide] cannot be ordered by EC50: no more than 250 nM for the first, no more than 250 nM for the second.

`CCOC(=O)C[C@H]1CC[C@H](C(=O)N(C[C@H]2CC[C@H](c3ccc(OC)c(C)n3)CC2)c2cccc(-c3cnn(C4CC4)c3)c2)CC1` [Compound 14, Ethyl 2-(trans-4-((3-(1-cyclopropyl-1H-pyrazol-4-yl)phenyl)((trans-4-(5-methoxy-6-methylpyridin-2-yl)cyclohexyl)methyl)carbamoyl)cyclohexyl)acetate] and `COc1ccc([C@H]2CC[C@H](CN(c3cc(-c4cnn(C(C)C)c4)ccn3)C(=O)[C@H]3CC[C@H](CO)CC3)CC2)nc1C` [Compound 15.03, trans-4-(Hydroxymethyl)-N-(4-(1-isopropyl-1H-pyrazol-4-yl)pyridin-2-yl)-N-((trans-4-(5-methoxy-6-methylpyridin-2-yl)cyclohexyl)methyl) cyclohexanecarboxamide] cannot be ordered by EC50: no more than 250 nM for the first, no more than 250 nM for the second.

`COc1ccc([C@H]2CC[C@H](CN(c3cccc(-c4cnc(C5CC5)s4)c3)C(=O)[C@H]3CC[C@H](CO)CC3)CC2)cc1C` [Compound 15.02, trans-N-(3-(2-Cyclopropylthiazol-5-yl)phenyl)-4-(hydroxymethyl)-N-((trans-4-(4-methoxy-3-methylphenyl)cyclohexyl)methyl) cyclohexanecarboxamide] and `COc1ccc([C@H]2CC[C@H](CN(c3cccc(-c4cnc(C5CC5)s4)c3)C(=O)[C@H]3CC[C@H](C(=O)O)CC3)CC2)cc1C` [Compound 17, trans-4-((3-(2-Cyclopropylthiazol-5-yl)phenyl)((trans-4-(4-methoxy-3-methylphenyl)cyclohexyl)methyl)carbamoyl)cyclohexanecarboxylic acid] cannot be ordered by EC50: no more than 250 nM for the first, no more than 250 nM for the second.

`COc1ccc([C@H]2CC[C@H](CN(c3cc(-c4coc(C5CC5)n4)ccn3)C(=O)[C@H]3CC[C@H](CO)CC3)CC2)nc1C` [Compound 15.04, trans-N-(4-(2-Cyclopropyloxazol-4-yl)pyridin-2-yl)-4-(hydroxymethyl)-N-((trans-4-(5-methoxy-6-methylpyridin-2-yl)cyclohexyl)methyl) cyclohexanecarboxamide] and `CN(C)c1ccc([C@H]2CC[C@H](CN(c3cccc(-c4cnc(C5CC5)s4)c3)C(=O)[C@H]3CC[C@H](C(=O)O)CC3)CC2)cn1` [Compound 16, trans-4-((3-(2-Cyclopropylthiazol-5-yl)phenyl)((trans-4-(6-(dimethylamino)pyridin-3-yl)cyclohexyl)methyl)carbamoyl)cyclohexanecarboxylic acid] cannot be ordered by EC50: no more than 250 nM for the first, no more than 250 nM for the second.

Work on `COc1ncc(-c2cccc(N(C[C@H]3CC[C@H](c4ccc(OC)c(C)c4)CC3)C(=O)C34CCC(C(=O)O)(CC3)CC4)c2)s1` [Compound 17.02, 4-(((trans-4-(4-Methoxy-3-methylphenyl)cyclohexyl)methyl)(3-(2-methoxythiazol-5-yl)phenyl)carbamoyl)bicyclo[2.2.2]octane-1-carboxylic acid] yielded an EC50 of no more than 250 nM.
